Measured values from patent publication US11963996B2, “Method of treating knee pain” (ORTHOTROPHIX, Inc., priority 2018, dated 2024).
“Also recorded” adds a separate entry of the source.

Key:
[1] = tested on: subjects with bilateral patello-femoral knee osteoarthritis; test: Same study: MRI-based periarticular bone area and 3D bone shape (AAM, B Score); type: in vivo, human
Text: The 3D bone shape change can be quantified using active appearance modelling (AAM). AAM enables encoding of the 3D shape and appearance of an object using multiple anchor points (“principal components”) on the surface of the object. These principal components describe computationally the specific 3D shape of the object. The use of AAM to represent femur, tibia, and patella shapes has been described in detail by Neogi, et. al. (Neogi 2013).
The MRI images of each knee used in cartilage thickness measurement were used to measure surface area of the periarticular bone in lateral and medial femur, lateral and medial trochlear femur, lateral and medial tibia, as well as lateral and medial patella. Bone shape scores in femur, trochlear femur, tibia, and patella were also measured using the same MRI images.
All KOOS subscale scores, WOMAC Total score and subscale scores, MRI-based patello-femoral and tibiofemoral cartilage thickness, and MRI-based periarticular bone area and 3D bone shape were analyzed.
MRI images were provided to central readers cartilage and periarticular bone measures. Central readers were blind as to treatment assignment.
Bone area and 3D shape of periarticular bone were analyzed using AAM software developed by iMorphics (www.imorphics.com) specifically for assessing these parameters in the osteoarthritic knee.
Statistical analyses were carried out using a two-sided paired t-test at the 5% level of significance. The outcome variables were the differences of the change of the score of each subscale of KOOS, change of cartilage thickness, periarticular bone area, and 3D bone shape score (“B Score”) change from baseline to 6 and 12 months in the treated knee (“Index Knee”) compared with the placebo-exposed knee (“Control Knee”).
Change in periarticular bone area and 3D bone shape as measured by MRI was also compared between Index and Control Knee groups. It should be noted that there were eight subjects whose MRI images were of insufficient quality and were excluded from bone area and shape analyses. Therefore, each evaluable treatment arm consisted of 85 knees.

[2] = tested on: subjects with bilateral patello-femoral knee osteoarthritis; test: Same study: safety and tolerability; type: in vivo, human
Experimental: The study was divided into Part A and Part B. The Part A was designed to evaluate safety of intra-articular (I.A.) administration of TPX-100 at different dosing levels (20, 50, 100, or 200 mg per injection in sequential cohorts) in the subjects with osteoarthritis of the knees and to select a dose for Part B. Part B was to evaluate safety and efficacy of the selected dose of TPX-100.
Subjects in Part A were enrolled in sequential cohorts and randomized to receive 20, 50, 100 or 200 mg of TPX-100 in one knee (Index Knee) and identical placebo in the contralateral (Control) knee. Subjects, sites and sponsor and central MRI readers were blinded as to treatment assignment. A Safety Review Committee (SRC) evaluated safety in each dosing cohort. The SRC assessed safety and determined whether the next higher dosing regimen could be enrolled. All dosing cohorts in Part A were completed and analyzed with regard to safety prior to dose selection and initiation of Part B.
On the first dosing day, the randomized subjects were assessed by physical examinations and vital signs. Further, they completed the Knee injury and Osteoarthritis Outcome Score (KOOS), which includes the Western Ontario and McMaster Universities Osteoarthritis Index (WOMAC). The KOOS questionnaire assesses knee-specific activities of daily living, sports and recreation, knee-related quality of life, other symptoms such as stiffness, and knee pain. The KOOS has been used extensively in longitudinal studies of knee osteoarthritis. After assessments were completed, subjects received one intra-articular injection in each knee, with each injection prepared from the vial(s) marked for that knee. One knee received TPX-100, and the contralateral knee received placebo with subject, site, and sponsor blinded to treatment assignment. Subjects were monitored for adverse events during the injections and for a few hours after the injections. Vital signs were also monitored after the injections.
On the 7th, 14th, and 21st days after the first dosing, subjects received the second, third, and fourth (last) dosing of the same study materials, respectively. Safety and adverse event assessments were obtained as on the first dosing day.
Subjects returned to their respective study sites at 3, 6 and 12 months after the first dosing day for follow-up evaluations. In addition, the study sites monitored the subject's condition through telephone contact 9 months after the first dosing day. During the 3, 6, and 12 months post-treatment, subjects were evaluated on site with physical examinations, vital signs, serum chemistries, as well as completing patient-reported outcomes including the KOOS. Adverse events and concomitant medications were recorded. MRIs of both knees were obtained during the 6 and 12-month visits.

[3] = tested on: subjects with bilateral patello-femoral knee osteoarthritis; test: Example 2: re-analysis of the study with stricter MRI image qualification (79 subjects); type: in vivo, human
Experimental: After the data analyses in EXAMPLE 1, a few more MRI images were questioned with regard to their technical quality to enable assessment of periarticular bone shape change over time. In order to assure the quality of the overall analysis results, a stricter qualification standard was applied to the MRI images used in EXAMPLE 1, and requalification was performed. Seventy-nine (79) subjects were requalified. The MRI knee images of these subjects were re-analyzed for their periarticular bone shape changes, as well as their correlations with the changes of tibiofemoral cartilage thickness and pain, respectively, in the same manner as described in EXAMPLE 1.
The requalified 79 subjects were included in the efficacy analysis per the Statistical Analysis Plan.

healthy volunteers = test: GLP toxicology studies and Phase 1 clinical study with healthy volunteers; details: human, in vivo
Text: In non-clinical safety and efficacy studies, TPX-100 was first tested for its bone formation activity.

defects in human molar [4] = test: Phase 2 study of dentin formation in defects in human molar; type: in vivo; details: both Phase 2 studies
Experimental: (§1) Based on these safety and bone and dentin formation data, TPX-100 was tested in two Phase 2 studies for alveolar bone and dentin formation activities, respectively.

alveolar bone = test: Phase 2 study of alveolar bone formation; type: in vivo, human; details: drug vs placebo
Experimental: as §1

[5] = tested on: cultured neonatal mouse calvaria; details: cited from earlier work
rat long bone fracture = details: cited from earlier work
rat dental defect = details: in vivo; cited from earlier work
defects in human molar [6] = details: in vivo; cited from earlier work
[7] = tested on: full-thickness chondral defect; details: in vivo; cited from earlier work
[8] = Example 2, 79 requalified subjects, Index vs Control knees, 6 or 12 month, or both
[9] = Example 2, Index vs Control Knees, 12 months

For “TPX-100: synthetic peptide consisting of 23 amino acids, TDLQERGDNDISPFSGDGQPFKD, derived from human Matrix Extracellular Phosphoglycoprotein (MEPE)”, the “Mean bone shape change rate” value ([1]; Index Knees, first 6 months) was 0.03, the “Periarticular bone area change, lateral femur, lateral patella and medial patella” value ([1]; Index Knees, first 6 months) was “nearly zero in all regions” and the “3D periarticular bone shape change of femur (B score)” value ([1]; Index vs Control Knees, 6 and 12 months (p=0.005 and 0.007)) was “statistically significant decrease in shape change compared to Control Knees; also recorded: statistically significant (p<0.05) difference in favor of Index Knees”. For the same substance, the “Periarticular bone area increase, medial femur” value ([1]; Index vs Control Knees, 6 months) was “less periarticular bone area increase as compared to Control Knees at 6 months, with a trend toward statistical significance (p=0.08); also recorded: less pathological bone area increase as compared to Control Knee at 6 months, with a trend toward statistical significance (p=0.08)”, the “Periarticular bone area increase, lateral femur, lateral and medial patella” value ([1]; Index vs Control Knees, 12 months) was “slower increase at 12 months compared with Control Knees” and the “3D periarticular bone shape changes in tibia and patella” value ([1]; Index vs Control Knees, no statistically significant difference) was “slower changes in Index Knees as compared to Control Knees”. The “3D bone shape change of patella in pain frequency responder group” value ([1]; responders, through 12 months) was “remained approximately zero through 12 months; also recorded: eventually no change in the 3D bone shape in patella”, the Safety and tolerability ([2]; 200 mg per dose, 4 once-weekly intra-articular injections) was “safe and well tolerated” and the Dose-limiting toxicities ([2]; Part A, 20, 50, 100 and 200 mg per injection) was “no dose-limiting toxicities”. For the same substance, the “Severe adverse events related to treatment” value ([2]; in vivo) was “no severe adverse events that were related to TPX-100 treatment”, the “Severity of treatment-related adverse events” value ([2]; in vivo) was “mild or moderate, transient” and the “KOOS ADL improvement” value [3, 8] was “clinically meaningful and statistically significant (p<0.05) improvements”. The “KOOS Knee-related QOL improvement” value [3, 8] was “clinically meaningful and statistically significant (p<0.05) improvements”, the “WOMAC Function improvement” value [3, 8] was “clinically meaningful and statistically significant (p<0.05) improvements” and the “3D periarticular femur bone shape change (bone shape score)” value ([3]; Example 2, Index vs Control Knees, 6 and 12 months) was “statistically significant (p<0.05) delay of femur bone shape change”. For the same substance, the “KOOS Pain subscale improvement” value [3, 9] was “clinically meaningful improvement in Index Knees with a trend towards statistical significance (p<0.09)”, the “Pain bending knee fully (KOOS Pain question)” value [3, 9] was “significantly improved (p<0.05)” and the “Pain frequency (KOOS Pain question)” value [3, 9] was “significantly improved (p<0.05)”. For the same substance, the “Pain going up or down stairs (KOOS Pain question)” value [3, 9] was “significantly improved (p<0.05)”, the “3D bone shape change in patella in pain frequency responders” value ([3]; Example 2, responders) was “eventually no change in the 3D bone shape in patella” and the “Pain frequency in responders, baseline to 12 months” value ([3]; Example 2, responders to TPX-100) was “decreased from daily pain at baseline to semi-monthly pain at 12 months”. The “Safety in GLP toxicology studies and Phase 1 study” value (healthy volunteers) was “Safety of the TPX-100 peptide was further confirmed”, the “Tolerability in two Phase 2 studies (alveolar bone, dentin)” value (defects in human molar [4]) was “well tolerated in both studies” and the Alveolar bone formation (alveolar bone) was “did not show a difference between drug vs. placebo-exposed groups”. For the same substance, the “Bone formation activity in calvaria culture” value [5] was “thickening of cultured neonatal mouse calvaria”, the “Tolerability in in vivo bone formation and dentin formation studies” value (rat long bone fracture; rat bone formation and dentin formation studies) was “well tolerated” and the Bone fracture healing (rat long bone fracture; subcutaneous injection) was “acceleration of bone fracture healing”. For the same substance, the Dentin formation (rat dental defect) was “promote dentin formation”, the “Dentin formation in defects in human molar” value (defects in human molar [6]) was “reparative dentin formation” and the “Safety and tolerability in goats” value [7] was “safe and well-tolerated”.
